Test results taken from patent US20220016101A1 (ACADIA Pharmaceuticals Inc., priority 2018, published 2022).

Test system: patients with MDD and an inadequate response to an SSRI or SNRI
Test: Massachusetts General Hospital Sexual Functioning Index (MGH-SFI), Study ACP-103-042
Format: in vivo, human
Settings: for MGH-SFI 05: Overall Sexual Satisfaction, Effect Size (Cohen's d) / MGH-SFI 06: Overall Improvement Since Last Medication Change, Effect Size (Cohen's d) / MGH-SFI 04: (Men) Ability to Get and Maintain an Erection, Effect Size (Cohen's d) / MGH-SFI 02: Ability to Get Sexually Aroused or Excited, Effect Size (Cohen's d) / MGH-SFI 03: Ability to Achieve Orgasm, Effect Size (Cohen's d) / MGH-SFI 01: Interest in Sex, Effect Size (Cohen's d): PIM 34 mg vs placebo; for MGH-SFI 04: (Men) Ability to Get and Maintain an Erection, Change from Baseline to Week 5 Mean (SE) / MGH-SFI 04: (Men) Ability to Get and Maintain an Erection, Change from Baseline to Week 5 Median / MGH-SFI 04: (Men) Ability to Get and Maintain an Erection, Week 5 Mean (SE) / MGH-SFI 04: (Men) Ability to Get and Maintain an Erection, Week 5 Median / MGH-SFI 05: Overall Sexual Satisfaction, Change from Baseline to Week 5 Mean (SE) / MGH-SFI 05: Overall Sexual Satisfaction, Change from Baseline to Week 5 Median / MGH-SFI 05: Overall Sexual Satisfaction, Week 5 Mean (SE) / MGH-SFI 05: Overall Sexual Satisfaction, Week 5 Median / MGH-SFI 06: Overall Improvement Since Last Medication Change, Week 5 Mean (SE) / MGH-SFI 06: Overall Improvement Since Last Medication Change, Week 5 Median / MGH-SFI 02: Ability to Get Sexually Aroused or Excited, Change from Baseline to Week 5 Mean (SE) / MGH-SFI 02: Ability to Get Sexually Aroused or Excited, Change from Baseline to Week 5 Median / MGH-SFI 02: Ability to Get Sexually Aroused or Excited, Week 5 Mean (SE) / MGH-SFI 02: Ability to Get Sexually Aroused or Excited, Week 5 Median / MGH-SFI 03: Ability to Achieve Orgasm, Change from Baseline to Week 5 Mean (SE) / MGH-SFI 03: Ability to Achieve Orgasm, Change from Baseline to Week 5 Median / MGH-SFI 03: Ability to Achieve Orgasm, Week 5 Mean (SE) / MGH-SFI 03: Ability to Achieve Orgasm, Week 5 Median / MGH-SFI 01: Interest in Sex, Change from Baseline to Week 5 Mean (SE) / MGH-SFI 01: Interest in Sex, Change from Baseline to Week 5 Median / MGH-SFI 01: Interest in Sex, Week 5 Mean (SE) / MGH-SFI 01: Interest in Sex, Week 5 Median: PIM 34 mg; for MGH-SFI 01: Interest in Sex, Change from Baseline to Week 5 Mean (SE) / MGH-SFI 01: Interest in Sex, Change from Baseline to Week 5 Median / MGH-SFI 01: Interest in Sex, Week 5 Mean (SE) / MGH-SFI 01: Interest in Sex, Week 5 Median / MGH-SFI 01: Interest in Sex, Effect Size (Cohen's d): subgroup >50 years
Excerpt: “Massachusetts General Hospital Sexual Functioning Index (MGH-SFI)” is described, for instance, in Labbate and Lare, 2001, Psychother Psychosom. 70(4):221-225. This is a patient facing questionnaire that quantifies sexual dysfunction into 5 functional domains (“interest in sex,” “sexual arousal,” “ability to achieve orgasm,” “ability to maintain erection” (males only), and “sexual satisfaction”). Patients rate each item using a 6-point scale ranging from 1 (good function) to 6 (poor function). High scores indicate poor sexual functioning. […] The determination of the subject's status and eligibility for randomization in Stage 2 was made in a double-blind manner. […] Sexual functioning was assessed using the Massachusetts General Hospital Sexual Functioning Index or MGH-SFI (Labbate and Lare, 2001, Psychother Psychosom. 70(4):221-225). This is a patient facing questionnaire that quantifies sexual dysfunction into 5 functional domains (“interest in sex,” “sexual arousal,” “ability to achieve orgasm,” “ability to maintain erection” [malesonly], and “sexual satisfaction”). Patients rate each item using a 6-point scale ranging from 1 (good function) to 6 (poor function). The time frame for this scale is the past month. This scale was administered at baseline and Week 5 in both stages of the study. High scores indicate poor sexual functioning. In ACP-103-042 the mean scores for MGH-SFI at Baseline was calculated over all 5 domains for males and the 4 domains for females. For MGH-SFI (follow-up version) at Study Weeks 5 and 10, the mean was calculated in the same way as MGH-SFI at Baseline. […] Tables 10-27 summarize the detailed data of MGH-SFI individual items of the overall study group (Tables 10-15), the subgroup of age of <=50 (Tables 16-21) and the subgroup of age of >50 (Table 21-26). In Tables 9-26, ANCOVA=analysis of covariance; OC=observed cases; LSM=least squares mean; CI=confidence interval; SD=standard deviation; SE=standard error. Stage 1: Baseline=Study Week 0, Week 5=Study Week 5; Stage 2: Baseline=Study Week 5, Week 5=Study Weeks 10. LSM from the stage-specific ANCOVA analysis with the change from baseline as the outcome, treatment group as a factor, and the corresponding Baseline value as a covariate. 2-sided p-value for treatment difference from the stage-specific ANCOVA analysis. An treatment effect size (Cohen's d) is calculated using the formula: Effect Size=Least Square mean difference between PIM and PBO/SD. The corresponding 95% confidence interval for an effect size is calculated based on the theoretical probability distribution of the effect size. […] Tables 10-15 and 28-38 summarize the detailed data of MGH-SFI individual items of the overall study group (Tables 10-15), the female subgroup (Tables 33-37) and the male subgroup (Table 38-43). An treatment effect size (Cohen's d) is calculated using the formula: Effect Size=Least Square mean difference between PIM and PBO/SD. The corresponding 95% confidence interval for an effect size is calculated based on the theoretical probability distribution of the effect size. In Tables 10-15 and 28-38, ANCOVA=analysis of covariance; OC=observed cases; LSM=least squares mean; CI=confidence interval; SD=standard deviation; SE=standard error. Stage 1: Baseline=Study Week 0, Week 5=Study Week 5; Stage 2: Baseline=Study Week 5, Week 5=Study Weeks 10. LSM from the stage-specific ANCOVA analysis with the change from baseline as the outcome, treatment group as a factor, and the corresponding Baseline value as a covariate. 2-sided p-value for treatment difference from the stage-specific ANCOVA analysis. An treatment effect size (Cohen's d) is calculated using the formula: Effect Size=Least Square mean difference between PIM and PBO/SD. The corresponding 95% confidence interval for an effect size is calculated based on the theoretical probability distribution of the effect size.

[1] = subgroup <=50 years old, Stage 1
[2] = subgroup <=50 years old, Stage 2
[3] = subgroup >50 years old, Stage 1
[4] = subgroup >50 years old, Stage 2

CC(C)COc1ccc(CNC(=O)N(Cc2ccc(F)cc2)C2CCN(C)CC2)cc1 [pimavanserin, N-(4-Fluorophenylmethyl)-N-(1-methylpiperidin-4-yl)-N′-(4-(2-methylpropyloxy)phenylmethyl)carbamide]
MGH-SFI 05: Overall Sexual Satisfaction, Effect Size (Cohen's d) [1]: 0.304
MGH-SFI 06: Overall Improvement Since Last Medication Change, Effect Size (Cohen's d) [1]: 0.622
MGH-SFI 04: (Men) Ability to Get and Maintain an Erection, Change from Baseline to Week 5 Mean (SE) [2]: −0.3 (0.48)
MGH-SFI 04: (Men) Ability to Get and Maintain an Erection, Change from Baseline to Week 5 Median [2]: −0.5
MGH-SFI 04: (Men) Ability to Get and Maintain an Erection, Week 5 Mean (SE) [2]: 3.5 (0.50)
MGH-SFI 04: (Men) Ability to Get and Maintain an Erection, Week 5 Median [2]: 4.0
MGH-SFI 05: Overall Sexual Satisfaction, Change from Baseline to Week 5 Mean (SE) [2]: −0.6 (0.34)
MGH-SFI 05: Overall Sexual Satisfaction, Change from Baseline to Week 5 Median [2]: −1.0
MGH-SFI 05: Overall Sexual Satisfaction, Week 5 Mean (SE) [2]: 4.0 (0.39)
MGH-SFI 05: Overall Sexual Satisfaction, Week 5 Median [2]: 4.0
MGH-SFI 06: Overall Improvement Since Last Medication Change, Week 5 Mean (SE) [2]: 3.8 (0.33)
MGH-SFI 06: Overall Improvement Since Last Medication Change, Week 5 Median [2]: 4.0
MGH-SFI 04: (Men) Ability to Get and Maintain an Erection, Effect Size (Cohen's d) [2]: −0.526
MGH-SFI 05: Overall Sexual Satisfaction, Effect Size (Cohen's d) [2]: 0.405
MGH-SFI 06: Overall Improvement Since Last Medication Change, Effect Size (Cohen's d) [2]: 0.043
MGH-SFI 02: Ability to Get Sexually Aroused or Excited, Change from Baseline to Week 5 Mean (SE) [3]: −0.9 (0.21)
MGH-SFI 02: Ability to Get Sexually Aroused or Excited, Change from Baseline to Week 5 Median [3]: −1.0
MGH-SFI 02: Ability to Get Sexually Aroused or Excited, Week 5 Mean (SE) [3]: 3.9 (0.32)
MGH-SFI 02: Ability to Get Sexually Aroused or Excited, Week 5 Median [3]: 4.0
MGH-SFI 03: Ability to Achieve Orgasm, Change from Baseline to Week 5 Mean (SE) [3]: −1.2 (0.33)
MGH-SFI 03: Ability to Achieve Orgasm, Change from Baseline to Week 5 Median [3]: 0.0
MGH-SFI 03: Ability to Achieve Orgasm, Week 5 Mean (SE) [3]: 3.8 (0.33)
MGH-SFI 03: Ability to Achieve Orgasm, Week 5 Median [3]: 4.0
MGH-SFI 04: (Men) Ability to Get and Maintain an Erection, Change from Baseline to Week 5 Mean (SE) [3]: 0.8 (0.48)
MGH-SFI 04: (Men) Ability to Get and Maintain an Erection, Change from Baseline to Week 5 Median [3]: 0.5
MGH-SFI 04: (Men) Ability to Get and Maintain an Erection, Week 5 Mean (SE) [3]: 5.0 (0.71)
MGH-SFI 04: (Men) Ability to Get and Maintain an Erection, Week 5 Median [3]: 5.5
MGH-SFI 05: Overall Sexual Satisfaction, Change from Baseline to Week 5 Mean (SE) [3]: −1.1 (0.34)
MGH-SFI 05: Overall Sexual Satisfaction, Change from Baseline to Week 5 Median [3]: 0.0
MGH-SFI 05: Overall Sexual Satisfaction, Week 5 Mean (SE) [3]: 4.1 (0.34)
MGH-SFI 05: Overall Sexual Satisfaction, Week 5 Median [3]: 4.0
MGH-SFI 06: Overall Improvement Since Last Medication Change, Week 5 Mean (SE) [3]: 3.3 (0.24)
MGH-SFI 06: Overall Improvement Since Last Medication Change, Week 5 Median [3]: 4.0
MGH-SFI 02: Ability to Get Sexually Aroused or Excited, Effect Size (Cohen's d) [3]: 0.660
MGH-SFI 03: Ability to Achieve Orgasm, Effect Size (Cohen's d) [3]: 0.869
MGH-SFI 04: (Men) Ability to Get and Maintain an Erection, Effect Size (Cohen's d) [3]: −0.568
MGH-SFI 05: Overall Sexual Satisfaction, Effect Size (Cohen's d) [3]: 0.757
MGH-SFI 06: Overall Improvement Since Last Medication Change, Effect Size (Cohen's d) [3]: 0.531
MGH-SFI 02: Ability to Get Sexually Aroused or Excited, Change from Baseline to Week 5 Mean (SE) [4]: −0.4 (0.21)
MGH-SFI 02: Ability to Get Sexually Aroused or Excited, Change from Baseline to Week 5 Median [4]: 0.0
MGH-SFI 02: Ability to Get Sexually Aroused or Excited, Week 5 Mean (SE) [4]: 4.4 (0.46)
MGH-SFI 02: Ability to Get Sexually Aroused or Excited, Week 5 Median [4]: 5.0
MGH-SFI 03: Ability to Achieve Orgasm, Change from Baseline to Week 5 Mean (SE) [4]: −0.5 (0.27)
MGH-SFI 03: Ability to Achieve Orgasm, Change from Baseline to Week 5 Median [4]: 0.0
MGH-SFI 03: Ability to Achieve Orgasm, Week 5 Mean (SE) [4]: 4.5 (0.54)
MGH-SFI 03: Ability to Achieve Orgasm, Week 5 Median [4]: 5.0
MGH-SFI 04: (Men) Ability to Get and Maintain an Erection, Change from Baseline to Week 5 Mean (SE) [4]: −1.6 (0.51)
MGH-SFI 04: (Men) Ability to Get and Maintain an Erection, Change from Baseline to Week 5 Median [4]: −2.0
MGH-SFI 04: (Men) Ability to Get and Maintain an Erection, Week 5 Mean (SE) [4]: 2.8 (0.92)
MGH-SFI 04: (Men) Ability to Get and Maintain an Erection, Week 5 Median [4]: 2.0
MGH-SFI 05: Overall Sexual Satisfaction, Change from Baseline to Week 5 Mean (SE) [4]: −0.8 (0.39)
MGH-SFI 05: Overall Sexual Satisfaction, Change from Baseline to Week 5 Median [4]: 0.0
MGH-SFI 05: Overall Sexual Satisfaction, Week 5 Mean (SE) [4]: 4.2 (0.58)
MGH-SFI 05: Overall Sexual Satisfaction, Week 5 Median [4]: 5.0
MGH-SFI 06: Overall Improvement Since Last Medication Change, Week 5 Mean (SE) [4]: 3.5 (0.40)
MGH-SFI 06: Overall Improvement Since Last Medication Change, Week 5 Median [4]: 4.0
MGH-SFI 02: Ability to Get Sexually Aroused or Excited, Effect Size (Cohen's d) [4]: −0.075
MGH-SFI 03: Ability to Achieve Orgasm, Effect Size (Cohen's d) [4]: 0.169
MGH-SFI 04: (Men) Ability to Get and Maintain an Erection, Effect Size (Cohen's d) [4]: 1.174
MGH-SFI 05: Overall Sexual Satisfaction, Effect Size (Cohen's d) [4]: 0.555
MGH-SFI 06: Overall Improvement Since Last Medication Change, Effect Size (Cohen's d) [4]: 0.406
MGH-SFI 01: Interest in Sex, Change from Baseline to Week 5 Mean (SE) (Stage 1): −1.0 (0.24)
MGH-SFI 01: Interest in Sex, Change from Baseline to Week 5 Median (Stage 1): −1.0
MGH-SFI 01: Interest in Sex, Week 5 Mean (SE) (Stage 1): 3.9 (0.32)
MGH-SFI 01: Interest in Sex, Week 5 Median (Stage 1): 4.0
MGH-SFI 01: Interest in Sex, Effect Size (Cohen's d) (Stage 1): 0.649
MGH-SFI 01: Interest in Sex, Change from Baseline to Week 5 Mean (SE) (Stage 2): −0.6 (0.24)
MGH-SFI 01: Interest in Sex, Change from Baseline to Week 5 Median (Stage 2): 0.0
MGH-SFI 01: Interest in Sex, Week 5 Mean (SE) (Stage 2): 4.4 (0.45)
MGH-SFI 01: Interest in Sex, Week 5 Median (Stage 2): 5.0
MGH-SFI 01: Interest in Sex, Effect Size (Cohen's d) (Stage 2): 0.468
